For one series, the system named is DLBCL cell lines. The series is described as follows: Median-effect combination analysis (CalcuSyn, Chou/Talalay CI). The series is classed as cell-based. The text has this:
The median-effect analysis was used to determine synergism, antagonism, or additivity of TK216 when combined with ABT199 (BCL-2i) and ACP196 (BTKi).
The inhibition of the EWS-FLI1 oncogene offers a promising approach for the treatment of Ewing Sarcoma, e.g., relapsed/refractory Ewing Sarcoma.

In a further series the test system is HBL-1. The series is described as follows: 72 hr CellTiter-Glo, DLBCL cell line. The format is cell-based. Particulars: HBL1. In general terms: ATP-based viability assays read luminescence as a measure of living cells.
In the next series the test system is THP-1. The experiment in a line: 72 hr CellTiter-Glo, AML cell line. The note with it: Homo sapiens. The format is cell-based.
Another series relates to TMD8 cells xenografts. The experiment in a line: TMD8 ABC-DLBCL xenograft in NOD-SCID mice. The series is classed as in vivo. Particulars: 100 mg/Kg, BID. As for the experimental part: NOD-Scid mice subcutaneously inoculated with TMD8 cells (15×10^6) were split in two groups respectively treated with TK-216 (100 mg/kg, BID, po, n=9) and control vehicle (n=10). In each box-plot, the line in the middle of the box represents the median and the box extends from the 25th to the 75th percentile (interquartile range, IQ); the whiskers extend to the upper and lower adjacent values (i.e., ±1.5 IQ).
56 lymphoma cell lines [27 diffuse large B cell lymphoma (DLBCL); 10 mantle cell lymphoma; 6 marginal zone lymphoma; 5 anaplastic large T-cell lymphoma; 8 others] were exposed to TK-216 increasing doses for 72 h using a Tecan D300e Digital Dispenser and 384 well plates. Cell proliferation was measured with MTT. In vivo study was done in NOD-SCID mice; treatments were started with approximately sc 60 mm3 tumor volumes. Sensitivity was not affected by the lymphoma cell of origin (B vs T; activated B cell type DLBCL versus germinal center type DLBCL) or MYC and TP53 status. There was a non-statistically significant trend for lower sensitivity in cell lines bearing BCL2 chromosomal translocation (P=0.07, DLBCL only; P=0.06, all cell lines).
The latter synergism could be linked to the previously mentioned negative trend between TK-216 IC50 values and the presence of BCL2 translocation.
Cell lines were exposed to YK-4-279 or TK-216, alone or in combination with other compounds, for 72 h using a Tecan D300e Digital Dispenser and 96 well plates. Cell proliferation was measured with MTT. Synergy was determined with the Chou-Talalay combination index. Gene expression profiling (GEP) was performed with the Illumina HumanHT 12 Expression BeadChips. In vivo studies were done in NOD-SCID mice and treatments started with 60 mm3 tumor volumes sc.

A further series concerns OCI-Ly18. The experiment in a line: 72 hr CellTiter-Glo, DLBCL cell line. The format is cell-based. The note with it: Homo sapiens.
The next series concerns TMD-8 tumors. The experiment in a line: TMD-8 DLBCL-ABC xenograft model in nude mice. The series is classed as in vivo. As for the experimental part: The anti-tumor activity of TK216 was assessed in nude mice harboring TMD-8 tumors, a DLBCL-ABC xenograft model. TK216 was administered orally as a solution at 100 mg/kg BID for 13 days.
In a further series the test system is Kasumi-1. The series is described as follows: 72 hr CellTiter-Glo, AML cell line. The format is cell-based. The note with it: Homo sapiens.

What is called IC50 is the point on the concentration scale where inhibition reaches its midpoint. Read a high IC50 as weaker potency. Regarding `O=C(CC1(O)C(=O)Nc2c(Cl)ccc(Cl)c21)c1ccc(C2CC2)cc1` (stereo not shown) [TK216, 4,7-Dichloro-3-(2-(4-cyclopropylphenyl)-2-oxoethyl)-3-hydroxyindolin-2-one], in the series on DLBCL cell lines (combined with ABT199), the “combination effect with ABT199 (BCL-2i), Combination Index” value is “synergy”. Besides, the “combination effect with ACP196 (BTKi), Combination Index” value in the series on DLBCL cell lines (combined with ACP196) is on record as “synergy”. Also, the IC50 stood at 304 nM in the series with HBL-1, 152 nM in the series with THP-1, 95 nM with OCI-Ly18 and 393 nM in the series on Kasumi-1. Also, the “reduction in tumor volume at D11” value in the series with TMD8 cells xenografts (D11, P<0.01 vs control group) is on record as “four-times”. Moreover, in the series with TMD8 cells xenografts (n=9), the “tumor growth compared with control group” value is recorded as “reduction in tumor growth”. Also, the tumor growth inhibition with TMD-8 tumors (100 mg/kg BID orally, 13 days, vs vehicle control) is 77%. Besides, the tolerability result in the series on TMD-8 tumors (daily oral administration, xenograft models of DLBCL) is recorded as “well-tolerated”.
